Experimental data published in patent publication US20220323329A1, “ORAL HEALTH COMPOSITION AND PREPARATION PROCESS FOR ORAL HEALTH COMPOSITION” (MMF&T DESENVOLVIMENTO TECNOLÓGICO E INOVAÇÃO LTDA., priority 2019, published 2022).

What was measured:
[1] = system: Enterococcus faecalis (ATCC 29212); test: Antimicrobial potential of phthalocyanine by direct contact; type: cell-based; settings: different concentrations and timespans (10.000 mg and 1.000 mg, 24 hours in FIG. 3)
Method: (§1) Studies were carried out for the improvement of antimicrobial potential of phthalocyanines, in an intrinsic aim of developing toothpastes, such as dental creams and dental foams including phthalocyanine for in vitro studies and possibly also in vivo studies.
(§2) For this purpose, the following microorganisms were used: Streptococcus mutans (ATCC 25175); Candida albicans (ATCC 10231); Enterococcus faecalis (ATCC 29212); and Staphylococcus aureus (ATCC 6538).

[2] = system: Candida albicans (ATCC 10231); test: as above; type: cell-based; settings: different concentrations and timespans (10.000 mg and 1.000 mg, 24 hours in FIG. 2)
Method: as §1, §2

[3] = system: Staphylococcus aureus (ATCC 6538); test: as above; type: cell-based; settings: different concentrations and timespans (10.000 mg and 1.000 mg, 24 hours in FIG. 4)
Method: as §1, §2

[4] = system: Streptococcus mutans (ATCC 25175); test: as above; type: cell-based; settings: different concentrations and timespans (10.000 mg and 1.000 mg, 3 and 5 minutes in FIGS. 5, 6)
Method: as §1, §2

[5] = PDT with phthalocyanine-glucamine as PTS; rats; cited from earlier work

Molecule	microbicidal action / inhibition of microbial growth [1]	microbicidal action / inhibition of microbial growth [2]	microbicidal action / inhibition of microbial growth [3]	microbicidal action / inhibition of microbial growth [4]	treatment of induced periodontal disease [5]
c1ccc2c(c1)-c1nc-2nc2[nH]c(nc3nc(nc4[nH]c(n1)c1ccccc41)-c1ccccc1-3)c1ccccc21 [phthalocyanine]	full inhibition of microbial growth	full inhibition of microbial growth	full inhibition of microbial growth	full inhibition of microbial growth	
phthalocyanine-glucamine					effective in the treatment of periodontal disease induced in rats
